Molecules are shown by their SMILES. Like-named read-outs stand apart in the source and are kept apart here.

For orientation: half-life means the time needed for the level to fall by half in the phase considered. For orientation: MTD means the highest dose tested that stayed within the study's limit of toxicity.

Series [1] deals with tumors. Kind of series: Anti-tumor activity of 5-aza-T-dCyd in in vivo tumor model (FIG. 6). As to conditions: mice, q1dx9; tumor size decreased several days after end of dosing. The method, then: (§1) Preliminary in vivo evaluation of the anti-tumor activity of T-dCyd and 5-aza-T-dCyd in mice was also conducted (FIG. 5 and FIG. 6). T-dCyd was tested against human lung NCI-H23 (FIG. 5), and also in DLD-1 colon tumor xenografts (not shown). […] However the 9-day treatment schedule is a classical schedule for a cytotoxic anticancer agent. T-dCyd as a potential DNA hypomethylating agent has not been evaluated in tumor models.
Again, the schedule in this experiment (q1dx9) was also not designed based on the supposed mechanism of action of this agent, but was designed based on a classical cytotoxic nucleoside analog, as in the case of T-dCyd. […] This type of compound might best be used in combination with other chemotherapy as a maintenance therapy. Thus, in the clinic one could envision treatment first with cytotoxic agents to kill a large percentage of rapidly dividing tumor cells, followed by treatment with non-toxic doses of hypomethylating agents for longer time periods. In a similar vein one could envisage treatment with non-toxic DNA hypomethylating agents in chemoprevention settings.

The test system of series [2] is DNMT1. The series is described as follows: DNMT1 protein levels by western blot in drug-treated KG1a cells. Format: cell-based, human. As for the experimental part:
Cells were incubated with drugs for the indicated times and analyzed by western blot. (*ns indicates a non-specific band used as a loading control).

A short description of series [3]: Stability in phosphate buffered saline by reverse phase HPLC (FIG. 4). As to conditions: PBS pH 7.4, 100 μM; for half-life at 100 μM: phosphate buffered saline, samples at 2, 20 and 90 hours. Format: physicochemical. The method, then:
One of the primary problems of the currently clinically used DNA hypomethylators 5-aza-dCyd and 5-azacytidine is the rapid degradation of these compounds by ring opening of the 5-azacytosine ring in aqueous solutions. Whether a 4′-thio modification would enhance the stability of 5-azacytosine relative to the 4′-oxonucleoside was tested (FIG. 4). In side-by-side experiments, the compounds were dissolved in PBS (phosphate buffered solution, pH 7.4) at a concentration of 100 μM. A sample was removed from each solution 2, 20, and 90 hours after addition of the drug and the concentrations of 5-aza-T-dCyd or 5-aza-dCyd were determined by reverse phase HPLC.

Series [4] concerns CEM leukemia cells. Kind of series: Incorporation of [5-3H]-labelled compound into DNA of CEM leukemia cells (FIG. 2). In kind it is cell-based, human. As to conditions: 100 nM of [5-3H]-labelled compound. As for the experimental part:
(§2) In particular, FIG. 2 refers to an experiment where CEM leukemia cells were incubated with 100 nM of [5-^3H]T-dCyd, [5-^3H]dCyd, [5-^3H]araC or [5-^3H]T-araC and the incorporation of compound into the DNA was determined. […] In contrast much less araC (or T-araC) was incorporated into the DNA. Although araCTP (or T araCTP) are also good substrates for DNA polymerases, they are known to inhibit subsequent DNA chain elongation and thereby inhibit DNA replication. […] The concentration of T-dCyd or araC required to inhibit CEM cell growth by 50% after 72 hours of incubation was 2.2 or 0.006 μM, respectively.

For series [5], the system named is CEM cells. Kind of series: Metabolism of dCyd or T-dCyd in CEM cells. In kind it is in vitro ADME, human. As to conditions: 100 nM, 1 hour. The method, then:
The metabolites that were produced in CEM cells treated with either [5-^3H]dCyd or [5-^3H]T-dCyd were also determined (Table 1). Cells were treated with 100 nM of each compound for 1 hour and the medium and cells were extracted to determine the major metabolites that were formed. The medium was analyzed by reverse phase HPLC to measure the parent compound, deaminated product, or [^3H]-water. The acid-soluble extract was analyzed by strong anion exchange HPLC to measure the intracellular concentration of nucleotide metabolites. The radioactivity in the acid-insoluble fraction represents the amount of compound that was incorporated into DNA. […] (Note: Because dCyd was labeled at the 5 position, the [^3H] was removed from the molecule by thymidylate synthase in the process of adding a methyl group to this position. Accordingly, there will be no radioactivity in thymidine nucleotides generated from [5-^3H]dCyd).

For series [6], the system named is KG1a human myeloid leukemia cells. The series is described as follows: Incorporation into DNA in KG1a human myeloid leukemia cells (FIG. 3). Format: cell-based. As to conditions: 300 nM, 4 h of incubation.
Series [7] deals with CEM cell. The series is described as follows: Inhibition of CEM cell growth. In kind it is cell-based, human. As to conditions: after 72 hours of incubation, read-out: concentration required to inhibit CEM cell growth by 50%. The method, then: as §2
The nature of series [8]: Maximum tolerated dose (MTD) in mice. As to conditions: mouse, in vivo. The method, then:
as §1

The subject of series [9] is human lung NCI-H23. The series is described as follows: Anti-tumor activity against human lung NCI-H23 tumor xenografts in mice (FIG. 5). Format: in vivo. The method, then:
as §1
A general note: Xenograft models place foreign cells or tissue in a host animal.

[10] abbreviates: similar experiments, FIG. 1B or not shown.
Where [11] appears, read: 1.3 mg/kg (MTD0.65), 9 day treatment, NCI-H23 tumors in mice.

Regarding `Nc1ncn([C@H]2C[C@H](O)[C@@H](CO)S2)c(=O)n1` [5-aza-T-dCyd, 5-aza-4′-thio-2′-deoxycytidine], the tumor growth inhibition entry in series [1] was “substantially inhibited the growth of the tumors”. Moreover, the “effect on DNMT1 protein level” value in [2] (doses as low as 0.1 μM, exposed for 72 or 96 h, FIG. 1E) is listed as “complete depletion of DNMT1”. In series [2] (similar exposures for as little as 48 h, FIG. 1C), the “effect on DNMT1 protein level” value was “completely depleted DNMT1”. Moreover, in [3], the “stability in PBS relative to 5-aza-dCyd” value came out at 5 fold and the half-life at 100 μM was 12.2 days.

In the case of `Nc1ccn([C@@H]2S[C@H](CO)[C@@H](O)[C@@H]2O)c(=O)n1` [T-araC, 4′-thio-arabinofuranosylcytosine, reference compound], the “incorporation of compound into the DNA” value in [4] is reported as “much less”. Further, the “effect on DNMT1 protein level” value in series [2] (setting [10]) is “did not deplete DNMT1”.

Regarding `Nc1ccn([C@H]2C[C@H](O)[C@@H](CO)O2)c(=O)n1` [dCyd, 2′-deoxycytidine, reference compound], in [5], the “[3H] in DNA” value is reported as 3% of total and the “[3H] in parent compound” value is on record as 38% of total.

On to `Nc1ncn([C@H]2C[C@H](O)[C@@H](CO)O2)c(=O)n1` [5-azadCyd, 5-aza-2′-deoxycytidine, reference compound], for which the “incorporation into DNA” value in series [6] is “only a moderate amount”. The “effect on DNMT1 protein level” value in series [2] (setting [10]) is “depleting DNMT1”. In addition, the half-life at 100 μM in series [3] is 2.79 days.

Consider `Nc1ccn([C@H]2C[C@H](O)[C@@H](CO)S2)c(=O)n1` [T-dCyd, 4′-thio-2′-deoxycytidine], for which, in [5], the “[3H] in DNA” value is 8% of total; the “[3H] in parent compound” value is given as 90% of total; the “radioactivity recovered as water in the medium, T-dUrd in the medium, or T-dUMP in the acid-soluble pool” value is “none”. In series [7] (Homo sapiens, CCRF-CEM), the IC50 stood at 2200 nM. Besides, the “incorporation into DNA” value in series [6] was “rapidly incorporated to very high levels”. This molecule also had an MTD at 9 day in series [8] of 2 mg/kg. In [9] (0.9 mg/kg (MTD0.45) and 0.6 mg/kg (MTD0.3), 9 day treatment schedule), the “in vivo anti-tumor activity” value is reported as “some encouraging in vivo activity”. In addition, in series [9] (setting [11]), the complete cures is recorded as 2/6 and the tumor growth inhibition result is “substantial growth inhibition”. Moreover, the “incorporation of compound into the DNA” value in series [4] is given as “more T-dCyd was incorporated into the DNA than dCyd”. Further, the “effect on DNMT1 protein level” value in [2] (72 h at the 3 μM dose, FIG. 1D) is “complete depletion of DNMT1”. Besides, in series [2] (72 hour exposure at low non-toxic doses, FIG. 1A), the “effect on DNMT1 protein level” value is given as “capable of reducing DNMT1”. The “effect on DNMT1 protein level” value in [2] (96 h at the 1 and 3 μM doses, FIG. 1D) was “complete depletion of DNMT1”.

Regarding `Nc1ccn([C@@H]2O[C@H](CO)[C@@H](O)[C@@H]2O)c(=O)n1` [araC, arabinofuranosylcytosine, reference compound], the IC50 in series [7] is 6 nM. The “incorporation of compound into the DNA” value in series [4] is given as “much less”. Further, the “effect on DNMT1 protein level” value in series [2] (setting [10]) is reported as “did not deplete DNMT1”.

(Values after patent US20110218170A1, “USE OF 2'-DEOXY-4'-THIOCYTIDINE AND ITS ANALOGUES AS DNA HYPOMETHYLATING ANTICANCER AGENTS” (Southern Research Institute, priority 2010, published 2011).)
